Data: ChEMBL document CHEMBL5584355, “Harnessing Nitric Oxide-Donating Benzofuroxans for Targeted Inhibition of Carbonic Anhydrase IX in Cancer” (J Med Chem, 2024)

Assays:
Carbonic anhydrase 1 = Carbonic anhydrase 1 (Homo sapiens, UniProt P00915); assay: Inhibition of human recombinant CA1 by phenol red dye based stopped flow CO2 hydration assay
Carbonic anhydrase 9 = Carbonic anhydrase 9 (Homo sapiens, UniProt Q16790); assay: Inhibition of human recombinant CA9 by phenol red dye based stopped flow CO2 hydration assay
Carbonic anhydrase 12 = Carbonic anhydrase 12 (Homo sapiens, UniProt O43570); assay: Inhibition of human recombinant CA12 by phenol red dye based stopped flow CO2 hydration assay
Carbonic anhydrase 2 = Carbonic anhydrase 2 (Homo sapiens, UniProt P00918); assay: Inhibition of human recombinant CA2 by phenol red dye based stopped flow CO2 hydration assay
[1] = Toxicity in female C57BL6/J mouse assessed as hematic pH at 10 mg/kg, ip administered daily for 2 weeks and measured 1 hr post last dose (reference value: 7.1); format: organism-based; details: in vivo, 336 h
HEK293 [2] = assay: Cytotoxicity against HEK293 cells assessed as inhibition of cell growth at 46 uM by celltiter-glo assay; format: toxicity, cell-based; details: human, hek293, 46 µM
HEK293 [3] = assay: Cytotoxicity against HEK293 cells assessed as inhibition of cell growth at 77 uM by celltiter-glo assay; format: toxicity, cell-based; details: human, hek293, 77 µM

Sequence of Carbonic anhydrase 1 (P00915 whole entry): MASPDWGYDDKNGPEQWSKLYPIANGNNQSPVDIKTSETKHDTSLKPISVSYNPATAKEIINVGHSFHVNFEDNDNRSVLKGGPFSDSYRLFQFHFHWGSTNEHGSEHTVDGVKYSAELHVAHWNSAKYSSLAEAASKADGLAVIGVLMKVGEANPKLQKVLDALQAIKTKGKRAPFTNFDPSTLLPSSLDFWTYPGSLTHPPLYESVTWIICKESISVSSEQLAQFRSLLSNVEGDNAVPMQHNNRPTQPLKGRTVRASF
Sequence of Carbonic anhydrase 12 (O43570 whole entry): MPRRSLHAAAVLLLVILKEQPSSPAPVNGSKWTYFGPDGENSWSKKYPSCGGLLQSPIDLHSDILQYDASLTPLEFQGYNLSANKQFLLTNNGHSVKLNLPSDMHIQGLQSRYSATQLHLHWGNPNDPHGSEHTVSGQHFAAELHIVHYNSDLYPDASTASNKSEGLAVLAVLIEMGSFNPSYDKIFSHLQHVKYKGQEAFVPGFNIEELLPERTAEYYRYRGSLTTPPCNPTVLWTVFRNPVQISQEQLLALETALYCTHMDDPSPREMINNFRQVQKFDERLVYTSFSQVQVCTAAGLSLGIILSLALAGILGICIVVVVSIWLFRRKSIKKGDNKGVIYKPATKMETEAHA

Row | Compound | Ki (Carbonic anhydrase 1) [nM] | Ki (Carbonic anhydrase 9) [nM] | other results
1 | O=C(O)c1ccc2c(c1)no[n+]2[O-] | > 10000 | 2650 | Ki (Carbonic anhydrase 12): 995 nM; Ki (Carbonic anhydrase 2): 8730 nM
2 | O=C(OCCCOc1ccc2oc(=O)ccc2c1)c1ccc2c(c1)no[n+]2[O-] | – | 48.5 | –
3 | O=C(OCCOc1ccc2ccc(=O)oc2c1)c1ccc2c(c1)no[n+]2[O-] | > 10000 | 112 | –
4 | NS(=O)(=O)c1ccc(OC(=O)c2ccc3c(c2)no[n+]3[O-])cc1 | 736 | 38.7 | –
5 | NS(=O)(=O)c1cccc(NC(=O)c2ccc3c(c2)no[n+]3[O-])c1 | 7660 | 41.5 | –
6 | NS(=O)(=O)c1ccc(O)c(NC(=O)c2ccc3c(c2)no[n+]3[O-])c1 | 8450 | 61.1 | –
7 | O=C(Oc1ccc2ccc(=O)oc2c1)c1ccc2c(c1)no[n+]2[O-] | – | 304 | –
8 | O=C(OCCCOc1ccc2ccc(=O)oc2c1)c1ccc2c(c1)no[n+]2[O-] | > 10000 | – | –
9 | NS(=O)(=O)c1ccc(NC(=O)c2ccc3c(c2)no[n+]3[O-])cc1 | 792 | 69.7 | –
10 | O=C(NCCOc1ccc2oc(=O)ccc2c1)c1ccc2c(c1)no[n+]2[O-] | – | 23.6 | –
11 | O=C(NCCOc1ccc2ccc(=O)oc2c1)c1ccc2c(c1)no[n+]2[O-] | > 10000 | – | –
12 | O=C(Oc1ccc2oc(=O)ccc2c1)c1ccc2c(c1)no[n+]2[O-] | > 10000 | 15.8 | –
13 | NS(=O)(=O)c1ccc(CCN(Cc2ccc(F)cc2)C(=O)c2ccc3c(c2)no[n+]3[O-])cc1 | – | – | Activity (HEK293 [3]): Non-Toxic
14 | NS(=O)(=O)c1cc(C(=O)O)c(NCc2ccco2)cc1Cl [FUROSEMIDE] | – | – | pH [1]: 7.05

Now from value to compound, other results behind:

Row | Ki (Carbonic anhydrase 1) [nM] | Ki (Carbonic anhydrase 9) [nM] | Compound | other results
15 | 83.1 | 37.9 | NS(=O)(=O)c1ccc(CNC(=O)c2ccc3c(c2)no[n+]3[O-])cc1 | –
16 | – | 20.3 | N#CCCN(CCc1ccc(S(N)(=O)=O)cc1)C(=O)c1ccc2c(c1)no[n+]2[O-] | –
17 | 618 | 10.4 | NS(=O)(=O)c1ccc(CCN(Cc2ccccc2)C(=O)c2ccc3c(c2)no[n+]3[O-])cc1 | pH [1]: 6.9; Activity (HEK293 [2]): Non-Toxic
18 | 445 | 12.6 | NS(=O)(=O)c1ccc(CCNC(=O)c2ccc3c(c2)no[n+]3[O-])cc1 | Ki (Carbonic anhydrase 12): 26.1 nM; Ki (Carbonic anhydrase 2): 90.1 nM
19 | 602 | 23.1 | NS(=O)(=O)c1ccc(CCN(Cc2ccco2)C(=O)c2ccc3c(c2)no[n+]3[O-])cc1 | –
20 | 831 | 14.9 | NS(=O)(=O)c1ccc(CCN(CCc2ccccc2)C(=O)c2ccc3c(c2)no[n+]3[O-])cc1 | –
